Laboratory results published in article PMC9571063 (Molecules, 2022).

Experiments:
Experiment in all cases: KINOMEscan
[1] = target: T1, ABL1(T315I)-nonphosphorylated (Homo sapiens, UniProt P00519, T315I); type: binding; details: read-out: Percent Control
T1 construct: purchased Eurofins DiscoverX KINOMEscan (scanMAX 468)

ABL1-phosphorylated = target: T2, ABL1-phosphorylated (Homo sapiens, UniProt P00519); type: binding; details: read-out: Percent Control
T2 construct: purchased Eurofins DiscoverX KINOMEscan (scanMAX 468)

ACVR2A = target: T3, ACVR2A (Homo sapiens, UniProt P27037); type: binding; details: read-out: Percent Control
T3 construct: purchased Eurofins DiscoverX KINOMEscan (scanMAX 468)

ADCK3 = target: T4, ADCK3 (Homo sapiens, UniProt Q8NI60); type: binding; details: read-out: Percent Control
T4 construct: purchased Eurofins DiscoverX KINOMEscan (scanMAX 468)
T4 sequence (Q8NI60 163-647): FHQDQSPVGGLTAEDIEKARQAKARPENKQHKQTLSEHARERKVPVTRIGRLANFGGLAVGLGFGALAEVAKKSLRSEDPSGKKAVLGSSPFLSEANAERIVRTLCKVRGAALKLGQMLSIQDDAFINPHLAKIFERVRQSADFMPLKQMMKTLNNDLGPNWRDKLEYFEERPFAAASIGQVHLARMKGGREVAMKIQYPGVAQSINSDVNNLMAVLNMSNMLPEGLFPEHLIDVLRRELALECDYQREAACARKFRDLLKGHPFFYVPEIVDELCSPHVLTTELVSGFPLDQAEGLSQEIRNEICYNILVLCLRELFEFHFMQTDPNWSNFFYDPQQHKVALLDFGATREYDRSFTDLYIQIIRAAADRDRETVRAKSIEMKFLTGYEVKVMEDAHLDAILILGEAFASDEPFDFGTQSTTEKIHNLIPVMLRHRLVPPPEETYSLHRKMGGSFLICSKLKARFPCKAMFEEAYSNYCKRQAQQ

CDC2L5 = target: T5, CDC2L5 (Homo sapiens, UniProt Q14004); type: binding; details: read-out: Percent Control
T5 construct: purchased Eurofins DiscoverX KINOMEscan (scanMAX 468)

CDK7 = target: T6, CDK7 (Homo sapiens, UniProt P50613); type: binding; details: read-out: Percent Control
T6 construct: purchased Eurofins DiscoverX KINOMEscan (scanMAX 468)

CDK9 = target: T7, CDK9 (Homo sapiens, UniProt P50750); type: binding; details: read-out: Percent Control
T7 construct: purchased Eurofins DiscoverX KINOMEscan (scanMAX 468)
T7 sequence (P50750 whole entry): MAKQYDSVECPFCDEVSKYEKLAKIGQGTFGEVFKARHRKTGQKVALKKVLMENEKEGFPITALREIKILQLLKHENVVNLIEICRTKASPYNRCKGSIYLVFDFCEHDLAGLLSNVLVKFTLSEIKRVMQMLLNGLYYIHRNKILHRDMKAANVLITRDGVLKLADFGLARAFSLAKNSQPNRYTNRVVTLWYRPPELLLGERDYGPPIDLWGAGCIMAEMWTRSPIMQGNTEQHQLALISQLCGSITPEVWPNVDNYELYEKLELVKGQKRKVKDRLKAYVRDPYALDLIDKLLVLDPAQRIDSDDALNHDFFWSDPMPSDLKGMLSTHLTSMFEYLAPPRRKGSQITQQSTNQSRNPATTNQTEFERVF

DCAMKL2 = target: T8, DCAMKL2 (Homo sapiens, UniProt Q8N568); type: binding; details: read-out: Percent Control
T8 construct: purchased Eurofins DiscoverX KINOMEscan (scanMAX 468)

DDR1 = target: T9, DDR1 (Homo sapiens, UniProt Q08345); type: binding; details: read-out: Percent Control
T9 construct: purchased Eurofins DiscoverX KINOMEscan (scanMAX 468)
T9 sequence (Q08345 19-913): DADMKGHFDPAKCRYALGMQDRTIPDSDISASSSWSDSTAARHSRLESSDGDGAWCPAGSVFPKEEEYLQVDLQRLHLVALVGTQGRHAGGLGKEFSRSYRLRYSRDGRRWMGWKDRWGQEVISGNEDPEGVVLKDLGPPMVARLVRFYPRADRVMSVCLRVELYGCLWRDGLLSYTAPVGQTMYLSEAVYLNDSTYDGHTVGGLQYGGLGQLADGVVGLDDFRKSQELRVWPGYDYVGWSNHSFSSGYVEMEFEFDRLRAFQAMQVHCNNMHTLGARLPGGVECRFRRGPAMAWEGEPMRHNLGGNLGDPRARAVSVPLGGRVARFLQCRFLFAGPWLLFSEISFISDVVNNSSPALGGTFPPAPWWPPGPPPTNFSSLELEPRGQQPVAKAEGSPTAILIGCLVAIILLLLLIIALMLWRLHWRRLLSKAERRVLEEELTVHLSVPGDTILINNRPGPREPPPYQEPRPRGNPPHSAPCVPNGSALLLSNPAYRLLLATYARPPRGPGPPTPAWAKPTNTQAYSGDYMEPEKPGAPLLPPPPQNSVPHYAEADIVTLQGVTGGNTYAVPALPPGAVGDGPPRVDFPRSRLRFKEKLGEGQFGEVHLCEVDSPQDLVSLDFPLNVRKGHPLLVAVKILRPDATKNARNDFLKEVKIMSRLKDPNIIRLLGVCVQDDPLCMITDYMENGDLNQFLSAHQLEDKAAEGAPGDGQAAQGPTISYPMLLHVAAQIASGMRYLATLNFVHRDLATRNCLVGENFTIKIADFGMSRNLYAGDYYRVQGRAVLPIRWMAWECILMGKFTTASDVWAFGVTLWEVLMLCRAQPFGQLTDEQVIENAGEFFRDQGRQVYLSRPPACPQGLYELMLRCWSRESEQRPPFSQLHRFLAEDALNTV

DMPK = target: T10, DMPK (Homo sapiens, UniProt Q09013); type: binding; details: read-out: Percent Control
T10 construct: purchased Eurofins DiscoverX KINOMEscan (scanMAX 468)

EGFR = target: T11, EGFR (Homo sapiens, UniProt P00533); type: binding; details: read-out: Percent Control
T11 construct: purchased Eurofins DiscoverX KINOMEscan (scanMAX 468)

[2] = target: T12, EGFR(L747-S752del, P753S) (Homo sapiens, UniProt P00533, DEL747-752/P753S); type: binding; details: read-out: Percent Control
T12 construct: purchased Eurofins DiscoverX KINOMEscan (scanMAX 468)
T12 sequence (P00533 with tags, fused parts or gaps DEL747-752/P753S limits assumed): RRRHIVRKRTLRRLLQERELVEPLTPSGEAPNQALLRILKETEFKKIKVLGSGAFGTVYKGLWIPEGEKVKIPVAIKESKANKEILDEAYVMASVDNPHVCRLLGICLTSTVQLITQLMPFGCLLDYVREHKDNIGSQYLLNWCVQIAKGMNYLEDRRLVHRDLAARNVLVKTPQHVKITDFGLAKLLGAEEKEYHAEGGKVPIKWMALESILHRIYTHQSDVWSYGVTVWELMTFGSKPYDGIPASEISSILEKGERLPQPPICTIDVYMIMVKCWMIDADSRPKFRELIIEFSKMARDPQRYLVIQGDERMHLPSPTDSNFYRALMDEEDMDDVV

EGFR(L747-T751del,Sins) = type: binding, human; details: 1 μM
EPHA5 = target: T13, EPHA5 (Homo sapiens, UniProt P54756); type: binding; details: read-out: Percent Control
T13 construct: purchased Eurofins DiscoverX KINOMEscan (scanMAX 468)

ERK8 = target: T14, ERK8 (Homo sapiens, UniProt Q8TD08); type: binding; details: read-out: Percent Control
T14 construct: purchased Eurofins DiscoverX KINOMEscan (scanMAX 468)

FGR = target: T15, FGR (Homo sapiens, UniProt P09769); type: binding; details: read-out: Percent Control
T15 construct: purchased Eurofins DiscoverX KINOMEscan (scanMAX 468)

FLT3(D835H) = target: T16, FLT3(D835H) (Homo sapiens, UniProt P36888, D835H); type: binding; details: read-out: Percent Control
T16 construct: purchased Eurofins DiscoverX KINOMEscan (scanMAX 468)

FLT3(ITD,F691L) = type: binding, human; details: 1 μM
GRK3 = target: T17, GRK3 (Homo sapiens, UniProt P35626); type: binding; details: read-out: Percent Control
T17 construct: purchased Eurofins DiscoverX KINOMEscan (scanMAX 468)

HIPK1 = target: T18, HIPK1 (Homo sapiens, UniProt Q86Z02); type: binding; details: read-out: Percent Control
T18 construct: purchased Eurofins DiscoverX KINOMEscan (scanMAX 468)

IKK-alpha = target: T19, IKK-alpha (Homo sapiens, UniProt O15111); type: binding; details: read-out: Percent Control
T19 construct: purchased Eurofins DiscoverX KINOMEscan (scanMAX 468)

LATS2 = target: T20, LATS2 (Homo sapiens, UniProt Q9NRM7); type: binding; details: read-out: Percent Control
T20 construct: purchased Eurofins DiscoverX KINOMEscan (scanMAX 468)

LIMK1 = target: T21, LIMK1 (Homo sapiens, UniProt P53667); type: binding; details: read-out: Percent Control
T21 construct: purchased Eurofins DiscoverX KINOMEscan (scanMAX 468)

LIMK2 = target: T22, LIMK2 (Homo sapiens, UniProt P53671); type: binding; details: read-out: Percent Control
T22 construct: purchased Eurofins DiscoverX KINOMEscan (scanMAX 468)
T22 sequence (P53671 whole entry): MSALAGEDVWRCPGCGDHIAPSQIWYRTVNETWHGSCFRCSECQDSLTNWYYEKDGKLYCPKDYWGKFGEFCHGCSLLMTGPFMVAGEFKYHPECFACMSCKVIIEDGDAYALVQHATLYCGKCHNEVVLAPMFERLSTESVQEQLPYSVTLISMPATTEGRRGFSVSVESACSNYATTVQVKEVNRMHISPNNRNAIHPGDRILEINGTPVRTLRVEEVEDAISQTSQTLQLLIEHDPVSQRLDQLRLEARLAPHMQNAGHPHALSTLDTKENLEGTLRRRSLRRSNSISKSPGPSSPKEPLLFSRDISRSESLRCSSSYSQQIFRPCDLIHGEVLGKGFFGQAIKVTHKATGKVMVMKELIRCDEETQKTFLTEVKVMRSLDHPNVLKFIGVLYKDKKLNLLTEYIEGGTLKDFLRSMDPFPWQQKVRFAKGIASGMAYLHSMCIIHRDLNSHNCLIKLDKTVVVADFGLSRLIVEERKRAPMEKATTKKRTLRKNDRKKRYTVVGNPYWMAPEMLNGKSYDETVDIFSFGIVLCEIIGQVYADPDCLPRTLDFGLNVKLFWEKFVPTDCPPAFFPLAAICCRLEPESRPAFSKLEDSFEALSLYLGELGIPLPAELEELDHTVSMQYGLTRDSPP

LZK = target: T23, LZK (Homo sapiens, UniProt O43283); type: binding; details: read-out: Percent Control
T23 construct: purchased Eurofins DiscoverX KINOMEscan (scanMAX 468)

MAP4K3 = target: T24, MAP4K3 (Homo sapiens, UniProt Q8IVH8); type: binding; details: read-out: Percent Control
T24 construct: purchased Eurofins DiscoverX KINOMEscan (scanMAX 468)
T24 sequence (Q8IVH8 whole entry): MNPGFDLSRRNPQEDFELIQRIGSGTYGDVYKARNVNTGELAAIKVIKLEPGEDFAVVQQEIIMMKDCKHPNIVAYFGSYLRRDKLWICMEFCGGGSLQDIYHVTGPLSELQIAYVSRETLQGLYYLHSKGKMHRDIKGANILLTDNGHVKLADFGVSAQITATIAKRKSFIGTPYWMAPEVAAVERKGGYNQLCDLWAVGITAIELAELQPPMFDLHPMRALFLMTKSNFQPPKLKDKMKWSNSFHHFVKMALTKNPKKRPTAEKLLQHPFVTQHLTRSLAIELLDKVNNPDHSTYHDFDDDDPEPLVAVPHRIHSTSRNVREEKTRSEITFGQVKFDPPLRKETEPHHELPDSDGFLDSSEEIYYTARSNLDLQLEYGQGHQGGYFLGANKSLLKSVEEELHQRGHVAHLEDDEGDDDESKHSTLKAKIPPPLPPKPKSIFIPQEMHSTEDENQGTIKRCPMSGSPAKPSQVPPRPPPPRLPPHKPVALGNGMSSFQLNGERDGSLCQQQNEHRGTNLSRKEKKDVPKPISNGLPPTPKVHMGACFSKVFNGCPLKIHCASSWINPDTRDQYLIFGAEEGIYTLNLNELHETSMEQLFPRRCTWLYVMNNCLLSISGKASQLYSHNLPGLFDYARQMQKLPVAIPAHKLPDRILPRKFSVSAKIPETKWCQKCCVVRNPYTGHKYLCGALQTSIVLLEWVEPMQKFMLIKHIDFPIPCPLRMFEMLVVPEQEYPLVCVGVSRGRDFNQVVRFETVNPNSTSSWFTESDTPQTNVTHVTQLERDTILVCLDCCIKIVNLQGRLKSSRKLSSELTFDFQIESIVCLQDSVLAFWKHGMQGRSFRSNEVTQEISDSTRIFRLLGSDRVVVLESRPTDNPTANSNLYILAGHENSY

MAP4K5 = target: T25, MAP4K5 (Homo sapiens, UniProt Q9Y4K4); type: binding; details: read-out: Percent Control
T25 construct: purchased Eurofins DiscoverX KINOMEscan (scanMAX 468)

MEK1 = target: T26, MEK1 (Homo sapiens, UniProt Q02750); type: binding; details: read-out: Percent Control
T26 construct: purchased Eurofins DiscoverX KINOMEscan (scanMAX 468)

MEK6 = target: T27, MEK6 (Homo sapiens, UniProt P52564); type: binding; details: read-out: Percent Control
T27 construct: purchased Eurofins DiscoverX KINOMEscan (scanMAX 468)

MET(M1250T) = target: T28, MET(M1250T) (Homo sapiens, UniProt P08581, M1250T); type: binding; details: read-out: Percent Control
T28 construct: purchased Eurofins DiscoverX KINOMEscan (scanMAX 468)

MINK = target: T29, MINK (Homo sapiens, UniProt Q8N4C8); type: binding; details: read-out: Percent Control
T29 construct: purchased Eurofins DiscoverX KINOMEscan (scanMAX 468)

PAK3 = target: T30, PAK3 (Homo sapiens, UniProt O75914); type: binding; details: read-out: Percent Control
T30 construct: purchased Eurofins DiscoverX KINOMEscan (scanMAX 468)

PIK3C2G = target: T31, PIK3C2G (Homo sapiens, UniProt O75747); type: binding; details: read-out: Percent Control
T31 construct: purchased Eurofins DiscoverX KINOMEscan (scanMAX 468)

PIK3CA(H1047L) = target: T32, PIK3CA(H1047L) (Homo sapiens, UniProt P42336, H1047L); type: binding; details: read-out: Percent Control
T32 construct: purchased Eurofins DiscoverX KINOMEscan (scanMAX 468)

PKAC-beta = target: T33, PKAC-beta (Homo sapiens, UniProt P22694); type: binding; details: read-out: Percent Control
T33 construct: purchased Eurofins DiscoverX KINOMEscan (scanMAX 468)

PLK3 = target: T34, PLK3 (Homo sapiens, UniProt Q9H4B4); type: binding; details: read-out: Percent Control
T34 construct: purchased Eurofins DiscoverX KINOMEscan (scanMAX 468)

RET = target: T35, RET (Homo sapiens, UniProt P07949); type: binding; details: read-out: Percent Control
T35 construct: purchased Eurofins DiscoverX KINOMEscan (scanMAX 468)
T35 sequence (P07949 29-1114): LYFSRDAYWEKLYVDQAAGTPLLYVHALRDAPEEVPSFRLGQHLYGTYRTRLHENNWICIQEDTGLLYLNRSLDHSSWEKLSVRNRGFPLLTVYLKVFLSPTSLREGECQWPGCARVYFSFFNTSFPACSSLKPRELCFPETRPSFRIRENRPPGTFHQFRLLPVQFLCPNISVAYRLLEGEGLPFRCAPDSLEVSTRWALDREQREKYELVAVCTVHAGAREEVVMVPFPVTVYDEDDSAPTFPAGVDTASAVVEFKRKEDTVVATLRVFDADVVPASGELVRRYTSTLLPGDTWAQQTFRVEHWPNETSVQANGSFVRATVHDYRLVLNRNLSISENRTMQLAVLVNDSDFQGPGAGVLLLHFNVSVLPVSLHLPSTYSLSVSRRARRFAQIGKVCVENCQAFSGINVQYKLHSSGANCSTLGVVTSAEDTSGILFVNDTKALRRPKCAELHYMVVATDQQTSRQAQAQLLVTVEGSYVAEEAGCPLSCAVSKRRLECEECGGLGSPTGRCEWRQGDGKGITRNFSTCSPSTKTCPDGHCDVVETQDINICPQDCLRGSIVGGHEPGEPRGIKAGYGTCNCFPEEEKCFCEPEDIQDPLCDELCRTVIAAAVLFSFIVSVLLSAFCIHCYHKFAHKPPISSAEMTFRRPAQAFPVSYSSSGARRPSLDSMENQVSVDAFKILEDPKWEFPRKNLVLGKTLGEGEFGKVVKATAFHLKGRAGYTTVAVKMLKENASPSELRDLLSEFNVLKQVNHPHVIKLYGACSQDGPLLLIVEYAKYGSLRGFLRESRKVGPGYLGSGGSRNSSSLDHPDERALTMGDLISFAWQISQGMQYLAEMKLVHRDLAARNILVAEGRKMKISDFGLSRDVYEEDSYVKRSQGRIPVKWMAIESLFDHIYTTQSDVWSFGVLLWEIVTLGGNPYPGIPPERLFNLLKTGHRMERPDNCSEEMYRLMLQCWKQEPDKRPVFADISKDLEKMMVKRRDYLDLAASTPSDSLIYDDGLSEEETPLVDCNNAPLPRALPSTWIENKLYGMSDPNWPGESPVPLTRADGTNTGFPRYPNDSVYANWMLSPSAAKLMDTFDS

RIPK2 = target: T36, RIPK2 (Homo sapiens, UniProt O43353); type: binding; details: read-out: Percent Control
T36 construct: purchased Eurofins DiscoverX KINOMEscan (scanMAX 468)

RIPK5 = target: T37, RIPK5 (Homo sapiens, UniProt Q6XUX3); type: binding; details: read-out: Percent Control
T37 construct: purchased Eurofins DiscoverX KINOMEscan (scanMAX 468)

[3] = target: T38, RPS6KA4(Kin.Dom.1-N-terminal) (Homo sapiens, UniProt O75676); type: binding; details: read-out: Percent Control
T38 construct: RPS6KA4(Kin.Dom.1-N-terminal); purchased Eurofins DiscoverX KINOMEscan (scanMAX 468)

TSSK3 = target: T39, TSSK3 (Homo sapiens, UniProt Q96PN8); type: binding; details: read-out: Percent Control
T39 construct: purchased Eurofins DiscoverX KINOMEscan (scanMAX 468)
T39 sequence (Q96PN8 whole entry): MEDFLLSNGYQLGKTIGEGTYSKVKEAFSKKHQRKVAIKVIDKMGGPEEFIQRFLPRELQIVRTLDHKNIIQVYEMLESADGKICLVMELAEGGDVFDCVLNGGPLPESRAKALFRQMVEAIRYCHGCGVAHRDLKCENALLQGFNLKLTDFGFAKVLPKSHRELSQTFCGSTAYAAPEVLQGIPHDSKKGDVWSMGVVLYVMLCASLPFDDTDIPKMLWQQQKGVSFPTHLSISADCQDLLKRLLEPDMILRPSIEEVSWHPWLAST

[4] = target: T40, TYK2(JH2domain-pseudokinase) (Homo sapiens, UniProt P29597); type: binding; details: read-out: Percent Control
T40 construct: TYK2(JH2domain-pseudokinase); purchased Eurofins DiscoverX KINOMEscan (scanMAX 468)

SMILES: Cc1ccc(-n2cc(COc3cccc4cnc(Nc5cccc(Cl)c5)nc34)nn2)c([N+](=O)[O-])c1 [DB18]
- remaining binding at 1 µM [1]: 89%
- remaining binding at 1 µM (ABL1-phosphorylated): 98%
- remaining binding at 1 µM (ACVR2A): 100%
- remaining binding at 1 µM (ADCK3): 100%
- remaining binding at 1 µM (CDC2L5): 100%
- remaining binding at 1 µM (CDK7): 100%
- remaining binding at 1 µM (CDK9): 100%
- remaining binding at 1 µM (DCAMKL2): 100%
- remaining binding at 1 µM (DDR1): 100%
- remaining binding at 1 µM (DMPK): 100%
- remaining binding at 1 µM (EGFR): 97%
- remaining binding at 1 µM [2]: 83%
- Percent Control (EGFR(L747-T751del,Sins)): 100 % Ctrl
- remaining binding at 1 µM (EPHA5): 100%
- remaining binding at 1 µM (ERK8): 95%
- remaining binding at 1 µM (FGR): 96%
- remaining binding at 1 µM (FLT3(D835H)): 55%
- Percent Control (FLT3(ITD,F691L)): 94 % Ctrl
- remaining binding at 1 µM (GRK3): 89%
- remaining binding at 1 µM (HIPK1): 19%
- remaining binding at 1 µM (IKK-alpha): 100%
- remaining binding at 1 µM (LATS2): 100%
- remaining binding at 1 µM (LIMK1): 100%
- remaining binding at 1 µM (LIMK2): 100%
- remaining binding at 1 µM (LZK): 100%
- remaining binding at 1 µM (MAP4K3): 95%
- remaining binding at 1 µM (MAP4K5): 100%
- remaining binding at 1 µM (MEK1): 97%
- remaining binding at 1 µM (MEK6): 99%
- remaining binding at 1 µM (MET(M1250T)): 88%
- remaining binding at 1 µM (MINK): 95%
- remaining binding at 1 µM (PAK3): 100%
- remaining binding at 1 µM (PIK3C2G): 97%
- remaining binding at 1 µM (PIK3CA(H1047L)): 100%
- remaining binding at 1 µM (PKAC-beta): 100%
- remaining binding at 1 µM (PLK3): 98%
- remaining binding at 1 µM (RET): 92%
- remaining binding at 1 µM (RIPK2): 98%
- remaining binding at 1 µM (RIPK5): 100%
- remaining binding at 1 µM [3]: 100%
- remaining binding at 1 µM (TSSK3): 96%
- remaining binding at 1 µM [4]: 100%
